Assay results from patent US9346787B2, “Piperidine compound or salt thereof” (TAIHO PHARMACEUTICAL CO., LTD., priority 2012, dated 2016).
Each block holds one compound with its values, some of them ahead of it.

Experiments:
human aurora A = human aurora A (Homo sapiens (Human), UniProt O14965); test: Inhibitory activity on aurora A kinase (IMAP fluorescence polarization); assay type: biochemical
Method: (§1) The inhibitory activity of a test compound on aurora A and aurora B was measured in accordance with the following method.
The cDNA encoding human aurora A having a N-term fused histidine tag was inserted into an expression vector and this protein was expressed at a high level in the E. coli BL21-CodonPlus (DE3)-RIL strain. The E. coli were collected and solubilized, and histidine tag-fused human aurora A protein was extracted by adsorption to a nickel chelate column and then eluted with imidazole from the column. The active fraction was desalted with a desalting column, whereby a purified enzyme was obtained.

human aurora B = human aurora B (Homo sapiens (Human), UniProt Q96GD4); test: Inhibitory activity on aurora B kinase; assay type: biochemical; conditions: ATP 40 μM, 60 minutes
Method: as §1

[1] = tested on: human uterine cervical cancer cell line (Hela-Luc); test: Evaluation of the anti-tumor effect (2), Hela-Luc subcutaneous transplant; assay type: in vivo, nude mouse; conditions: for BWC (body weight change) / RTV (relative tumor volume): Day 11, paclitaxel 20 mg/kg i.v. day 1; for potentiation of the anti-tumor effect of paclitaxel (in words): combination with paclitaxel versus paclitaxel-only group
[2] = tested on: human uterine cervical cancer cell line (Hela-Luc); test: Evaluation of the anti-tumor effect (1), Hela-Luc subcutaneous transplant; conditions: for BWC (body weight change) / RTV (relative tumor volume): paclitaxel 30 mg/kg i.v. day 1, compound 60 mg/kg orally twice a day on day 2 and day 3; for potentiation of the anti-tumor effect of paclitaxel (in words): combination with paclitaxel versus paclitaxel-only group
Source text: The luciferase-introduced human uterine cervical cancer cell line (Hela-Luc) was subcutaneously transplanted into a nude mouse, and when the volume of the grafted tumor reached 100 to 200 mm^3, five mice in one group were grouped into the single drug administration group and combinational administration group by a randomized stratification method so as to achieve a uniform tumor volume in each group (day 1). […] In order to compare the anti-tumor effect brought about by drug administration, setting the tumor volume at the time of grouping at 1, the relative tumor volume (RTV) was determined in accordance with the following formula as a rate of tumor proliferation. RTV=(Tumor volume on the day of measurement of tumor volume)/(Tumor volume at the time of grouping)
Meanwhile, as the index of systemic toxicity caused by drug administration, the body weight change (BWC) was used. BWC (%)=([(Body weight of mouse on the day of body weight measurement)−(Body weight of mouse at the time of grouping)]/(Body weight of mouse at the time of grouping))×100

[3] = Evaluation of oral absorbability (plasma concentration after oral administration); assay type: in vivo; conditions: 0.5% HPMC, BALB/cA mouse, plasma 0.5-6 hours
Method: The test compound was suspended or dissolved in 0.5% HPMC and orally administered to a BALB/cA mouse. The blood was drawn from the retro-orbital venous plexus 0.5, 1, 2, 4, and 6 hours after oral administration to obtain plasma. The concentration of the compound in the plasma thus obtained was measured by LCMS and the oral absorbability was evaluated.

[4] = Compound 13 30 mg/kg orally twice a day on day 2 and day 3
[5] = Compound 22 100 mg/kg (single) or 60 mg/kg (combination) orally twice a day on day 2 and day 3

Sequence of human aurora A (O14965 whole entry): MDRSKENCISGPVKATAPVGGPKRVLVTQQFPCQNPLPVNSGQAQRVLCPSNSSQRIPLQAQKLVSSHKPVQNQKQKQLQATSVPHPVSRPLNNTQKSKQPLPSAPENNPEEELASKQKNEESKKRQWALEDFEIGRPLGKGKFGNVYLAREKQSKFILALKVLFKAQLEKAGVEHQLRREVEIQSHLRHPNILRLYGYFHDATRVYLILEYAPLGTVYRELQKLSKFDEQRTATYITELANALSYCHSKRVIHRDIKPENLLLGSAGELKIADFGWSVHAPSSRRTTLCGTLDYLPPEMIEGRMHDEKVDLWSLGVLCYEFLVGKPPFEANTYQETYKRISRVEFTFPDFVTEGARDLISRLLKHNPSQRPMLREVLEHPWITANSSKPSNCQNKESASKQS
Sequence of human aurora B (Q96GD4 whole entry): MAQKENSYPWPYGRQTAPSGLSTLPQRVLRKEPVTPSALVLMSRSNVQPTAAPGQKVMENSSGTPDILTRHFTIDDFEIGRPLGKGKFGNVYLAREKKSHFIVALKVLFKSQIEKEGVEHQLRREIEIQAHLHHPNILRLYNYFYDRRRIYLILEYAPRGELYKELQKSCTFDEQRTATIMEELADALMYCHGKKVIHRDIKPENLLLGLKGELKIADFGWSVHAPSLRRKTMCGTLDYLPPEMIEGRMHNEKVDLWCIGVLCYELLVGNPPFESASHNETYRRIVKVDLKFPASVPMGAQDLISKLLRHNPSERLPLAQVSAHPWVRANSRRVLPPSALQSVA
Sequence of human aurora B (Q9NQS7 803-918 partner): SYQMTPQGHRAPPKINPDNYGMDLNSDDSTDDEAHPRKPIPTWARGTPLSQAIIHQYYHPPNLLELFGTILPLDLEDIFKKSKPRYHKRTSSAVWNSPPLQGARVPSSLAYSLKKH

- IC50 (human aurora A; ATP 5 μM, 25° C., 50 minutes): 220 nM
- IC50 (human aurora B): 320 nM
SMILES: Cc1cc(Nc2nc(CC3(C(=O)O)CCN(C(=O)c4cccc(Cl)c4F)CC3)ccc2C#N)n[nH]1 [Comparative Example 6, 1-(3-chloro-2-fluorobenzoyl)-4-((5-cyano-6-(5-methyl-H-pyrazol-3-ylamino)pyridin-2-yl)methyl)piperidine-4-carboxylic acid]
- inhibitory activity on aurora A and selectivity for aurora A (in words) (human aurora A; compared with aurora B and with MLN8237): did not exhibit either inhibitory activity on aurora A or selectivity for aurora A

SMILES: CC(=O)O[C@H]1C(=O)[C@@]2(C)[C@H]([C@H](OC(=O)c3ccccc3)[C@]3(O)C[C@H](OC(=O)[C@H](O)[C@@H](NC(=O)c4ccccc4)c4ccccc4)C(C)=C1C3(C)C)[C@]1(OC(C)=O)CO[C@@H]1C[C@@H]2O [Paclitaxel, paclitaxel]
- BWC (body weight change) [1, 4]: 5.4%
- RTV (relative tumor volume) [1, 4]: 2.90
- BWC (body weight change) [1, 5]: 7.8%
- RTV (relative tumor volume) [1, 5]: 3.05
- BWC (body weight change) ([2]; Day 23): 3.0%
- RTV (relative tumor volume) ([2]; Day 23): 0.69
- BWC (body weight change) ([2]; Day 46): 11.6%
- RTV (relative tumor volume) ([2]; Day 46): 5.38
- DCR (disease control rate) ([2]; Day 46, ratio of individuals in which RTV does not exceed 1): 40%

- oral absorbability (plasma concentration after oral administration) [3]: favorable oral absorbability
SMILES: Cc1cc(Nc2nc(CC3(C(=O)O)CCN(C(=O)c4cccc(Cl)c4F)CC3)ccc2Cl)n[nH]1 [Example 12, 1-(3-chloro-2-fluorobenzoyl)-4-((5-chloro-6-(5-methyl-1H-pyrazol-3-ylamino)pyridin-2-yl)methyl)piperidine-4-carboxylic acid]

- oral absorbability (plasma concentration after oral administration) [3]: favorable oral absorbability
SMILES: Cc1cc(Nc2nc(CC3(C(=O)O)CCN(C(=O)c4cccc(Cl)c4Cl)CC3)ccc2F)n[nH]1 [Example 1, 1-(2,3-dichlorobenzoyl)-4-((5-fluoro-6-(5-methyl-1H-pyrazol-3-ylamino)pyridin-2-yl)methyl)piperidine-4-carboxylic acid]
- BWC (body weight change) ([2]; Day 23): 11.6%
- RTV (relative tumor volume) ([2]; Day 23): 10.47
- potentiation of the anti-tumor effect of paclitaxel (in words) [2]: remarkably potentiated

SMILES: O=C(c1cccc(Cl)c1F)N1CCC(Cc2cccc(Nc3cc[nH]n3)n2)(c2n[nH]c(=O)o2)CC1 [Comparative Example 1, 5-(1-(3-chloro-2-fluorobenzoyl)-4-((6-(1H-pyrazol-3-ylamino)pyridin-2-yl)methyl)piperidin-4-yl)-1,3,4-oxadiazol-2(3H)-one]
- BWC (body weight change) ([2]; Day 23): 11.6%
- RTV (relative tumor volume) ([2]; Day 23): 15.23
- potentiation of the anti-tumor effect of paclitaxel (in words) [2]: did not clearly potentiate the anti-tumor effect

- oral absorbability (plasma concentration after oral administration) [3]: favorable oral absorbability
SMILES: Cc1cc(Nc2nc(CC3(C(=O)O)CCN(C(=O)c4cccc(Cl)c4F)CC3)ccc2F)n[nH]1 [Example 13, 1-(3-chloro-2-fluorobenzoyl)-4-((5-fluoro-6-(5-methyl-1H-pyrazol-3-ylamino)pyridin-2-yl)methyl)piperidine-4-carboxylic acid]
- BWC (body weight change) [1, 4]: 6.0%
- RTV (relative tumor volume) [1, 4]: 6.54
- potentiation of the anti-tumor effect of paclitaxel (in words) [1]: remarkably potentiated

- oral absorbability (plasma concentration after oral administration) [3]: favorable oral absorbability
SMILES: Cc1cc(Nc2nc(CC3(c4noc(C)n4)CCN(C(=O)c4cccc(Cl)c4F)CC3)ccc2F)n[nH]1 [Example 22, (3-chloro-2-fluorophenyl)(4-((5-fluoro-6-(5-methyl-1H-pyrazol-3-ylamino)pyridin-2-yl)methyl)-4-(5-methyl-1,2,4-oxadiazol-3-yl)piperidin-1-yl)methanone]
- BWC (body weight change) [1, 5]: 6.9%
- RTV (relative tumor volume) [1, 5]: 4.66
- potentiation of the anti-tumor effect of paclitaxel (in words) [1]: remarkably potentiated

- IC50 (human aurora B): 680 nM
SMILES: Cc1cc(Nc2nc(CC3(C(=O)N4CCC4)CCN(C(=O)c4cccc(Cl)c4F)CC3)ccc2F)n[nH]1 [Example 19, azetidin-1-yl(1-(3-chloro-2-fluorobenzoyl)-4-((5-fluoro-6-(5-methyl-1H-pyrazol-3-ylamino)pyridin-2-yl)methyl)piperidin-4-yl)methanone]

- oral absorbability (plasma concentration after oral administration) [3]: favorable oral absorbability
SMILES: COc1ccc(CC2(C(=O)O)CCN(C(=O)c3cccc(Cl)c3F)CC2)nc1Nc1cc(C)[nH]n1 [Example 11, 1-(3-chloro-2-fluorobenzoyl)-4-((5-methoxy-6-(5-methyl-1H-pyrazol-3-ylamino)pyridin-2-yl)methyl)piperidine-4-carboxylic acid]
